The results in this text go back to patent publication US11667643B2, “RIP1K inhibitors” (priority 2020, dated 2023).

Structures are written as SMILES. Read-outs that look alike come from different tables or passages of the source.

For one experiment, the target named is RIPK1 (Homo sapiens (Human), UniProt Q13546). Kind of experiment: biochemical. In kind it is biochemical. On the procedure: In this example, compounds of the disclosure were evaluated using a biochemical assay using the ADP-Glo™ technology.
ADP-Glo™ (Promega, Madison, Wis., USA) reagents were thawed at ambient temperature. Kinase Detection Reagent was prepared by mixing kinase detection buffer with the lyophilized kinase detection substrate.
A […] stock volume of 5× Reaction Kinase Buffer was made by mixing 1000 μl of 1M MgCl2, 500 μl of 1M Tris-HCL pH7.4, 0.5 mg/ml (25 mg) of BSA, and 3475 μl of distilled H2O. A 3 ml 2× working stock volume of Reaction Kinase Buffer was made containing a final concentration of 100 μM DTT and 4 mM MnCl2.
Components of RIPK1 enzyme (Rigel Pharmaceuticals, South San Francisco, Calif., USA) were thawed on ice. Diluted RIPK1 was prepared in 1× Kinase Reaction Buffer (diluted from 2× buffer) to 31 ng/well.
1.0 ul of diluted compound was added to a 384 well plate in duplicate. […] The final reaction volume was 5.0 μl. The plate was quickly centrifuged and the reaction was incubated at 30° C. for 30 minutes. Adding 5 μl of ADP-Glo™ terminated the reaction. The plate was quickly centrifuged and the reaction was incubated at room temperature for 40 minutes. Kinase Detection Reagent was then added and incubated at room temperature for 30 minutes. The relative light unit (RLU) of kinase reaction was determined by luminescent (Luminescence 0.1 s) using a Wallac Victor2 Luminometer (PerkinElmer, Waltham, Mass., USA).

For the next experiment, the system named is L929 cells. Kind of experiment: L929 cell necroptosis assay (TNFa + zVAD, CellTiter-Glo recovery), functional murine RIP1 assay. Type of experiment: cell-based. The following applies: Mus musculus, L929, 18 h, read-out: L929-CTG-recovery, L929, TNFa + zVAD (IC50), L929 cells, zVAD-fmk, TNFa 2 ng/mL, 18 hours, CellTiter-Glo. On the procedure:
(§1) In this example, U937 and L929 cells were exposed to compounds of the present disclosure and a cell necroptosis assay was conducted to evaluate compound activity in functional human RIP1 and murine RIP1 assays.
(§2) U937 and L929 cells were obtained from the American Type Culture Collection (Manassa, Va., USA). Both cells were maintained in logarithmic growth phase in complete RPMI 1640 media (Sigma, ST Louis, Mo., USA) supplemented with 10% fetal bovine serum (Sigma, ST Louis, Mo., USA) at 37° C. with 5% CO2. For necroptosis assay, L929 cells were plated for 18 h in 100 μL/well medium at 10K cells/well in Costar 96-well black clear-bottom plates (Fisher Scientific, Hampton, N.H., USA); U937 cells were plated on the day of the assay in 50 μL/well medium containing 60 uM zVAD-fmk (Lonza, Basel, Switzerland) at 50K cells/well. Medium from L929 cells were removed from the 96-well plates and replaced with 50 μL/well new medium containing 40 uM zVAD-fmk. Each compound of the present disclosure evaluated in this example was serially diluted in DMSO from 2.5 mM in 4-fold dilutions, and then diluted 1:125 in complete medium. 50 μL/well 2× of the compound was then added to the cells in the plates. The cells were pre-incubated with the compound for 1 hour at 37° C. with 5% CO2 and before addition of 10 μL/well 11×TNFa (Peprotech, Rocky Hill, N.J., USA) to give a final concentration of 2 ng/mL for TNFa. The relative amount of necroptosis cells was determined by luminescent using a Wallac Victor2 Luminometer (PerkinElmer, Waltham, Mass., USA) and a CellTiter-Glo® Luminescent Cell Viability Reagent Assay (Promega, Madison, Wis., USA) added per manufacturer instructions after 18 hours of TNFa stimulation at 37° C. with 5% CO2. This example establishes that embodiments of the compounds described herein have unexpectedly potent activity against human RIP1 and murine RIP1, which allows their assessment in in vivo mouse models of disease.

The next experiment has as its system U937 cells. Kind of experiment: U937 cell necroptosis assay (TNFa + zVAD, CellTiter-Glo recovery), functional human RIP1 assay. The following applies: Homo sapiens, U-937, 18 h, read-out: U937 Zvad TNF CTG Recovery, U937, TNFa + zVAD (IC50), U937 cells, zVAD-fmk, TNFa 2 ng/mL, 18 hours, CellTiter-Glo. Type of experiment: cell-based. On the procedure:
as §1, §2
(In ATP-based viability assays light output follows the ATP content of the culture.)

Setting [1] is: RIPK1 enzyme 31 ng/well, 30° C. for 30 minutes, luminescence, read-out: RIPK1 ADP-Glo Kinase (IC50).

RIPK1, sequence (Q13546 whole entry, species assumed): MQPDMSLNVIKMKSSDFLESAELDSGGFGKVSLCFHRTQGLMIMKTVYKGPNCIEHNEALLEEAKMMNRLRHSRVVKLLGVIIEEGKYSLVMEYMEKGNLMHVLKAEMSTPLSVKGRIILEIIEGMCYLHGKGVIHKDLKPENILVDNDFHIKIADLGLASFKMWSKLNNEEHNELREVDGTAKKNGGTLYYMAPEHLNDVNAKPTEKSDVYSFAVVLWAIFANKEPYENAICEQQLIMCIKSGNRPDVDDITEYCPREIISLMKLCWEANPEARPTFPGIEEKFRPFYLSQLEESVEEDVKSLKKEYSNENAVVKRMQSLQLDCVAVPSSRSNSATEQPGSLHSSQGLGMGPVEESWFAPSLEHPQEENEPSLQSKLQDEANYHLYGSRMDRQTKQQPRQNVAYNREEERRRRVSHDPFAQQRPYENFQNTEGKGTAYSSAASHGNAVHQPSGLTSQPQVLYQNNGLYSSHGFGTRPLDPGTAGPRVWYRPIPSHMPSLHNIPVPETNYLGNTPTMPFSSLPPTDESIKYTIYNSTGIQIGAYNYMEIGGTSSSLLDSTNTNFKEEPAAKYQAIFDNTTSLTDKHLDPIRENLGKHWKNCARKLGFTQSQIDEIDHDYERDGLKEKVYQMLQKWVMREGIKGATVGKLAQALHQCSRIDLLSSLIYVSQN

On to `O=C(NC1CCc2ccc(CN3CCN(c4ccncc4)CC3)cc2-n2ccnc21)c1ncn(Cc2c(Cl)cccc2Cl)n1` (racemic) [Compound I-47, (±)-1-(2,6-Dichlorobenzyl)-N-(9-((4-(pyridin-4-yl)piperazin-1-yl)methyl)-5,6-dihydro-4H-benzo[f]imidazo[1,2-a]azepin-4-yl)-1H-1,2,4-triazole-3-carboxamide], for which the IC50 came to 0.0873 µM on RIPK1 (setting [1]), 9.5 µM in the experiment on L929 cells and 0.0257 µM in the experiment with U937 cells.
For `O=C(NC1CCc2ccccc2-n2ccnc21)c1cc(Oc2ccccc2)ccn1` (racemic) [Compound I-51, (±)-N-(5,6-Dihydro-4H-benzo[f]imidazo[1,2-a]azepin-4-yl)-4-phenoxypicolinamide], in that order: 0.0492 µM, 17.1 µM and 0.125 µM.
For `O=C(N[C@H]1COc2ccc(C#Cc3ccccn3)cc2-n2ccnc21)c1n[nH]c(Cc2ccccc2)n1` [Compound I-89, (R)-5-Benzyl-N-(9-(pyridin-2-ylethynyl)-4,5-dihydrobenzo[b]imidazo[1,2-d][1,4]oxazepin-4-yl)-1H-1,2,4-triazole-3-carboxamide] the same measures were 0.108 µM, 7.93 µM and 0.0352 µM.
For `O=C(N[C@H]1COc2ccc(N3CC4(CCOCC4)C3)cc2-n2ccnc21)c1cc(Oc2ccccc2)ccn1` [Compound I-88, (R)—N-(9-(7-Oxa-2-azaspiro[3.5]nonan-2-yl)-4,5-dihydrobenzo[b]imidazo[1,2-d][1,4]oxazepin-4-yl)-4-phenoxypicolinamide], in that order: 0.112 µM, 10000 µM and 0.163 µM.
On to `O=C(NC1CCc2ccc(CN3CCN(c4ccncc4)CC3)cc2-n2ccnc21)c1n[nH]c(Cc2ccccc2)n1` (racemic) [Compound I-39, (±)-5-Benzyl-N-(9-((4-(pyridin-4-yl)piperazin-1-yl)methyl)-5,6-dihydro-4H-benzo[f]imidazo[1,2-a]azepin-4-yl)-1H-1,2,4-triazole-3-carboxamide], for which the IC50 at RIPK1 (setting [1]) turned out to be 1.46 µM; in the experiment on L929 cells it was 50.9 µM; in the experiment with U937 cells, 1.38 µM.
For `O=C(NC1CCc2ccc(N3CCC4(CCOCC4)CC3)cc2-n2ccnc21)c1ncn(Cc2c(Cl)cccc2Cl)n1` (racemic) [Compound I-61, (±)-N-(9-(3-Oxa-9-azaspiro[5.5]undecan-9-yl)-5,6-dihydro-4H-benzo[f]imidazo[1,2-a]azepin-4-yl)-1-(2,6-dichlorobenzyl)-1H-1,2,4-triazole-3-carboxamide], in that order: 0.0862 µM, 0.106 µM and 0.0181 µM.
For `CC(C)(O)C#Cc1ccc2c(c1)-n1ccnc1C(NC(=O)n1cc(Cc3ccc(F)cc3)cn1)CC2` (racemic) [Compound I-93, (±)-4-(4-Fluorobenzyl)-N-(9-(3-hydroxy-3-methylbut-1-yn-1-yl)-5,6-dihydro-4H-benzo[f]imidazo[1,2-a]azepin-4-yl)-1H-pyrazole-1-carboxamide], in that order: 0.0404 µM, 5.17 µM and 0.0371 µM.
For `O=C(NC1CCc2ccc(N3CC4(CCOCC4)C3)cc2-n2ccnc21)c1ccn(Cc2ccccc2)n1` (racemic) [Compound I-85, (±)-N-(9-(7-Oxa-2-azaspiro[3.5]nonan-2-yl)-5,6-dihydro-4H-benzo[f]imidazo[1,2-a]azepin-4-yl)-1-benzyl-1H-pyrazole-3-carboxamide], in that order: 0.168 µM, 1.35 µM and 0.0309 µM.
As to `O=C(NC1CCc2ccccc2-n2ccnc21)c1nccc(-c2ccccc2)n1` (racemic) [Compound I-2, (±)-N-(5,6-Dihydro-4H-benzo[f]imidazo[1,2-a]azepin-4-yl)-4-phenylpyrimidine-2-carboxamide], the IC50 was found to be 6.23 µM at RIPK1 (setting [1]), 10000 µM with L929 cells and 40.3 µM in the experiment on U937 cells.
In the case of `O=C(NC1CCc2ccccc2-n2c1nc(Cl)c2Cl)c1n[nH]c(Cc2ccccc2)n1` (racemic) [Compound I-80, (±)-5-Benzyl-N-(1,2-dichloro-5,6-dihydro-4H-benzo[f]imidazo[1,2-a]azepin-4-yl)-1H-1,2,4-triazole-3-carboxamide], the values for the IC50 at RIPK1 (setting [1]), in the experiment on L929 cells and in the experiment on U937 cells were 1.87 µM, 10000 µM and 83.4 µM, respectively.
In the case of `O=C(NC1CCc2ccccc2-n2c1noc2=O)c1cc(Oc2ccccc2)ccn1` (racemic) [Compound I-52, (±)-N-(1-Oxo-5,6-dihydro-1H,4H-benzo[f][1,2,4]oxadiazolo[4,3-a]azepin-4-yl)-4-phenoxypicolinamide], the IC50 was 0.0325 µM on RIPK1 (setting [1]), 20.8 µM with L929 cells and 0.0647 µM in the experiment with U937 cells.
For `Cn1nc2n(c1=O)-c1ccccc1CCC2NC(=O)c1ncn(Cc2c(Cl)cccc2Cl)n1` (racemic) [Compound I-60, (±)-1-(2,6-Dichlorobenzyl)-N-(2-methyl-1-oxo-2,4,5,6-tetrahydro-1H-benzo[f][1,2,4]triazolo[4,3-a]azepin-4-yl)-1H-1,2,4-triazole-3-carboxamide] the same measures were 1.29 µM, 10000 µM and 35.8 µM.
For `O=C(NC1CCc2ccccc2-n2c(Cl)cnc21)c1cc(Cc2ccccc2)on1` (racemic) [Compound I-71, (±)-5-Benzyl-N-(1-chloro-5,6-dihydro-4H-benzo[f]imidazo[1,2-a]azepin-4-yl)isoxazole-3-carboxamide], in that order: 0.58 µM, 10000 µM and 3.48 µM.
For `O=C(N[C@H]1COc2ccccc2-n2nnnc21)c1ncn(Cc2ccccc2F)n1` [Compound I-21, (R)—N-(4,5-Dihydrobenzo[b]tetrazolo[1,5-d][1,4]oxazepin-4-yl)-1-(2-fluorobenzyl)-1H-1,2,4-triazole-3-carboxamide] the same measures were 0.0567 µM, 160 µM and 0.0625 µM.
`O=C(NC1CCc2ccc(N3CC4(CCOCC4)C3)cc2-n2ccnc21)c1n[nH]c(Cc2ccccc2)n1` (racemic) [Compound I-84, (±)-N-(9-(7-Oxa-2-azaspiro[3.5]nonan-2-yl)-5,6-dihydro-4H-benzo[f]imidazo[1,2-a]azepin-4-yl)-5-benzyl-1H-1,2,4-triazole-3-carboxamide]: the IC50 against RIPK1 was determined as 0.119 µM; in the experiment on L929 cells it was 8.79 µM; in the experiment with U937 cells it was 0.0386 µM.
In the case of `O=C(NC1COc2ccccc2-n2cccc21)c1ncn(Cc2c(Cl)cccc2Cl)n1` (racemic) [Compound I-27, (±)-1-(2,6-Dichlorobenzyl)-N-(6,7-dihydrobenzo[b]pyrrolo[1,2-d][1,4]oxazepin-7-yl)-1H-1,2,4-triazole-3-carboxamide], the IC50 turned out to be 0.0684 µM on RIPK1 (setting [1]), 5.55 µM in the experiment with L929 cells and 0.034 µM with U937 cells.
With `Cc1cnc2n1-c1ccccc1CCC2NC(=O)c1ncn(Cc2c(Cl)cccc2Cl)n1` (racemic) [Compound I-44, (±)-1-(2,6-Dichlorobenzyl)-N-(1-methyl-5,6-dihydro-4H-benzo[f]imidazo[1,2-a]azepin-4-yl)-1H-1,2,4-triazole-3-carboxamide], the values for the IC50 at RIPK1 (setting [1]), in the experiment with L929 cells and in the experiment on U937 cells were 0.947 µM, 10000 µM and 1.67 µM, respectively.
